We go through 3 compounds from BindingDB's records for doi:10.1021/jm970857f (Eli Lilly, 1998).

Counter-ions that a name gives are not always drawn. Some results are limits rather than exact numbers.

The target of this experiment is T1, Alpha-1A adrenergic receptor (Rattus norvegicus, UniProt P43140).
T1 sequence (P43140 whole entry): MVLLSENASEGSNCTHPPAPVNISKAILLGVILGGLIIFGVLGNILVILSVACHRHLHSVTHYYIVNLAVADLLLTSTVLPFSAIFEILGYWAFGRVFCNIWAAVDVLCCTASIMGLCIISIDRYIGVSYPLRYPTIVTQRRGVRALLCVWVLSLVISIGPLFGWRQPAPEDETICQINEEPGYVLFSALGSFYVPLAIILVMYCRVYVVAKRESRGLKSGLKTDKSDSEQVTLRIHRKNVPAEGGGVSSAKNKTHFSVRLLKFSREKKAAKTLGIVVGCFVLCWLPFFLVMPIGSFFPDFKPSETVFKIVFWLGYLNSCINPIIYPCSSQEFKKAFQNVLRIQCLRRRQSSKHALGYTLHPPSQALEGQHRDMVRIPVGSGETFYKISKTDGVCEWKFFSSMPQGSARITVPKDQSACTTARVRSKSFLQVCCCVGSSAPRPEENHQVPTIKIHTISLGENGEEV
For the compound `CC(C)n1nc(C(=O)NCCN2CCC(NC(=O)OCc3ccccc3)CC2)c2ccccc21` [N-(2-(4-((Benzyloxycarbonyl)amino)-1-piperidinyl)-ethyl)-1-isopropylindazole-3-carboxamide Oxalate], the Ki (commonly a dissociation constant, usually derived from enzyme kinetics or from competition with a known ligand) was > 10 µM.
For the compound `CC(C)n1nc(C(=O)NC2CCN(Cc3ccccc3)CC2)c2ccccc21` [N-(1-Benzylpiperidin-4-yl)-1-isopropylindazole-3-carboxamide Hydrochloride], the Ki is > 10 µM.
Turning to `CC(C)n1nc(C(=O)NC2CCN(CCNS(C)(=O)=O)CC2)c2ccccc21` [N-(1-(2-((N-Methylsulfonyl)amino)ethyl)piperidin-4-yl)-1-isopropylindazole-3-carboxamide Maleate], the Ki is > 10 µM.
